These results are taken from US20250114299A1, “COMBINATION THERAPY INTRAVAGINAL RINGS” (The population Council, Inc., priority 2022, published 2025).

The nature of data set [1]: pKa of DPV (chemical properties). It is filed as physicochemical.
A short description of data set [2]: Solubility of DPV (Form I) in various solvents. It is filed as physicochemical.
Data set [3] concerns wild-type HIV-1 strains and HIV-1 strains harboring different resistance-inducing mutations. To be noted: Das et al., J. Med Chem., 2004; cited from earlier work.

Where two headings read alike, the source gives them in different places. Bounds are passed on as bounds.

For orientation: pKa means the negative logarithm of the acid dissociation constant. Low readings indicate a group that gives up its proton readily, high ones a group that holds its proton tightly. In turn, `Cc1cc(C)c(Nc2ccnc(Nc3ccc(C#N)cc3)n2)c(C)c1` [DPV, 4-[[4-[(2,4,6-trimethylphenyl)amino]-2-pyrimidinyl]amino]benzonitrile] had a pKa in data set [1] of 5.8. Moreover, the Solubility is 0.17 mg/g in data set [2] (Form I, 0.01M HCl); 0.02 mg/g in data set [2] (Form I, 0.1M HCl); 0.001 mg/g in data set [2] (Form I, 0.1M NaOH); 0.095 mg/g in data set [2] (Form I, Buffer pH 2); 0.0025 mg/g in data set [2] (Form I, Buffer pH 4); 0.001 mg/g in data set [2] (Form I, Buffer pH 6). Also, the Solubility in data set [2] (Form I, Buffer pH 8) was 0.001 mg/g; in data set [2] (Form I, Buffer pH 10) it was 0.001 mg/g; in data set [2] (Form I, Polyethylene glycol 400), 47.4 mg/g; in data set [2] (Form I, Propylene glycol), 2.69 mg/g; in data set [2] (Form I, Water) it was 0.001 mg/g; in data set [2] (water, read-out: solubility of dapivirine in water), under 1 µg/mL. The “solubility in water” value in data set [2] (water) is given as “virtually insoluble in water”. In addition, in data set [3], the “activity against wild-type and resistant HIV-1 strains” value is “potent activity”.
